# Test system: Rat MCT-induced PAH Model
# Experiment: Rat MCT-induced PAH model (hemodynamics, histomorphometry, IHC)
# Format: in vivo
# Procedure: Rat MCT-induced PAH Model: Male Sprague-Dawley rats (Charles River Laboratories) (260-280 g; vehicle control group, n=6; all other groups, n=15) received MCT (50 mg/kg, SC; 1 ml/kg BVV) dissolved in vehicle (33.3% 1 N HCl, 14.8% 1 N NaOH, 52.2% diH2O) or vehicle alone on day 0. Sildenafil (50 mg/kg/dose; BID) was administered (5 ml/kg, PO) either prophylactically from days 0-28 or therapeutically from days 14-28. Palbociclib (100 mg/kg; QD) was administered therapeutically (days 14-28). Both sildenafil and palbociclib were resuspended in vehicle (0.5% methylcellulose) and administered orally (5 ml/kg). On day 28, animals were anesthetized via isoflurane, hemodynamic parameters were evaluated, and tissues harvested after euthanasia.
# Hemodynamic measurements—monocrotaline (MCT) study: On day 28, animals were anesthetized via 2% isofluorane in positive pressure ventilator. Pulmonary hemodynamics were measured using a pre-calibrated pressure transducer in isoflurane positive-pressure ventilated animals. Steady-state pulmonary and systemic arterial pressures were measured using a Millar Solid State Mikro-tip catheter (Millar Instruments, Houston, Tex.) introduced to the pulmonary arterial trunk at the level of the aortic arch via the right carodid artery. Hemodynamic values were automatically calculated by the physiological data acquisition system, ADI Chart (ADI Instruments, Colorado Springs, Colo.) (Plato BioPharma).
# Measurement of RV hypertrophy. After collection of the heart at necropsy, the atria and great vessels were removed. The RV was separated from the LV and S. The wet weights of the RV and LV+S were measured to calculate the Fulton Index.
# Tissue preparation. Under anesthesia, the animals were exsanguinated, and the pulmonary circulation flushed with oxygenated (animals from Example 3 [MCT]) or heparizined (animals from Example 4 [Su5416/Hx]) saline. Trachea, lungs, and heart were removed intact from thoracic cavity and placed in ice-cold saline. Right lung lobes were removed, weighed, and immediately flash frozen in liquid nitrogen. A 10 mL syringe filled with fixative (10% NBF) with attached blunt tip needle (20 g) was used to inflate the left lung lobe and the airway was tied off to keep it consistently expanded. The left lung was then immersion fixed in 10% NBF for 48 hrs and then transferred to 70% EtOH for ≤5 days.
# Histomorphometric analysis. Three, 3-5 μm thick, transverse sections of the left lung lobe were used for histomorphometric analysis. Overall disease severity scores were determined by light microscopic evaluation of hematoxylin and eosin (H&E)-stained lung sections by a board-certified veterinary pathologist. Scores ranged from 0 (absent), 1 (minimal), 2 (mild), 3 (moderate), 4 (marked) to 5 (severe) and were assigned according to the approximate percentage of the tissue affected by the tissue changes (inflammatory, degenerative, vascular and/or proliferative) characteristic of the PAH model. Average vessel wall thickness was evaluated using lung sections prepared with a modified Verhoeff-van Gieson elastin stain. Image analysis was performed using random field sampling (Visiopharm newCAST) of 10% of tissue area with observer-assisted identification of intra-acinar and pre-acinar vessels and application of a nucleator probe to measure vessel wall thickness. Fully muscularized intra-acinar vessel density was evaluated in a similar manner using dual αSMA/Ki67 IHC-stained sections and observer-assisted counting of ≥70% muscularized (i.e. SMA^+), transversely sectioned, ≤50 μm external diameter, intra-acinar vessels with an identifiable lumen. Vessel-associated Ki67^+ and pRb^+ cells were counted in αSMA/Ki67 IHC-and CD31/pRb IHC-stained lung sections, respectively, using random field sampling of 10% of tissue area and observer-assisted identification of Ki67^+ or pRb^+ cells associated with the walls (i.e. in the intima or media) of vessels 100 μm external diameter.
# Immunohistochemistry. […]
# [1] = day 14-28, score scale 0-5, FIG. 3g
smiles,measurement,setting,value
"CC(=O)c1c(C)c2cnc(Nc3ccc(N4CCNCC4)cn3)nc2n(C2CCCC2)c1=O [Palbociclib, 6-acetyl-8-cyclopentyl-5-methyl-2-{[5-(piperazin-1-yl)pyridin-2yl]amino}pyrido[2,3-d]pyrimidin-7(8H)-one]",structural changes in the pulmonary vasculature (histomorphometry),FIG. 3f,dramatically improved and in some cases fully normalized
same,"vessel-associated Ki67+ proliferating cells (IHC, lung)",FIG. 5c,dramatically decreased to control levels
same,"vessel-associated phosphoRb+ cells (IHC, lung)",FIG. 5d,dramatically decreased to control levels
same,density of fully muscularized intra-acinar vessels (αSMA staining),"day 14-28, FIG. 3e",greater reduction
same,"average vessel wall thickness (elastin staining), intra-acinar and pre-acinar pulmonary arteries, relative to vehicle/MCT group","day 14-28, FIG. 3d",0.58 x MCT
same,"disease severity scores, mean",[1],1
same,"disease severity scores, range",[1],0-2
same,hemodynamic and physiologic effects,"palbociclib 100 mg/kg/day PO QD, therapeutic day 14-28, versus sildenafil day 0-28",not only matched but exceeded the positive hemodynamic and physiologic effects of sildenafil when dosed prophylactically
